Results from PubChem BioAssay (NCI).
Where “and” joins values, the source holds several entries; their conditions need not be identical. Equal values may be shown once.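 These data come from cells grown in 96-well plates and exposed to compound for 48 hours at five concentrations. GI50 is the concentration that inhibits growth by half. At the TGI there is no net growth.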

Experiments:
Experiment in all cases: inhibition of tumour cell growth, NCI panel, 48 h
MDA-MB-468 breast = tested on: MDA-MB-468 breast
SNB-75 CNS = tested on: SNB-75 CNS
786-0 renal = tested on: 786-0 renal
UACC-257 melanoma = tested on: UACC-257 melanoma
NCI-H23 lung = tested on: NCI-H23 lung
IGROV1 ovarian = tested on: IGROV1 ovarian
NCI-H460 lung = tested on: NCI-H460 lung
NCI-H226 lung = tested on: NCI-H226 lung
HOP-62 NSCLC = tested on: HOP-62 NSCLC
OVCAR-8 ovarian = tested on: OVCAR-8 ovarian
MDA-MB-231 breast = tested on: MDA-MB-231 breast
SK-MEL-5 melanoma = tested on: SK-MEL-5 melanoma
SF-295 CNS = tested on: SF-295 CNS
UO-31 renal = tested on: UO-31 renal
T-47D breast = tested on: T-47D breast
ACHN renal = tested on: ACHN renal
HCT-15 colon = tested on: HCT-15 colon
M14 melanoma = tested on: M14 melanoma
HL-60(TB) leukemia = tested on: HL-60(TB) leukemia
SF-539 CNS = tested on: SF-539 CNS
HCC-2998 colon = tested on: HCC-2998 colon
A549 NSCLC = tested on: A549 NSCLC
BT-549 breast = tested on: BT-549 breast
PC-3 prostate = tested on: PC-3 prostate
HOP-92 NSCLC = tested on: HOP-92 NSCLC
MCF7 breast = tested on: MCF7 breast
DU-145 prostate = tested on: DU-145 prostate
KM12 colon = tested on: KM12 colon
OVCAR-5 ovarian = tested on: OVCAR-5 ovarian
OVCAR-3 ovarian = tested on: OVCAR-3 ovarian
SF-268 CNS = tested on: SF-268 CNS
TK-10 renal = tested on: TK-10 renal
MDA-MB-435 = tested on: MDA-MB-435
HT29 colon = tested on: HT29 colon
U251 CNS = tested on: U251 CNS
EKVX NSCLC = tested on: EKVX NSCLC
RXF 393 renal = tested on: RXF 393 renal
SN12C renal = tested on: SN12C renal
SR leukemia = tested on: SR leukemia
MOLT-4 leukemia = tested on: MOLT-4 leukemia
CAKI-1 renal = tested on: CAKI-1 renal
HS 578T breast = tested on: HS 578T breast
A498 renal = tested on: A498 renal
SW-620 colon = tested on: SW-620 colon
UACC-62 melanoma = tested on: UACC-62 melanoma
SK-MEL-28 melanoma = tested on: SK-MEL-28 melanoma
HCT-116 colon = tested on: HCT-116 colon
SK-OV-3 ovarian = tested on: SK-OV-3 ovarian
K-562 leukemia = tested on: K-562 leukemia
SNB-19 CNS = tested on: SNB-19 CNS
NCI-H522 lung = tested on: NCI-H522 lung
CCRF-CEM leukemia = tested on: CCRF-CEM leukemia
MALME-3M melanoma = tested on: MALME-3M melanoma
LOX IMVI melanoma = tested on: LOX IMVI melanoma
RPMI-8226 leukemia = tested on: RPMI-8226 leukemia
OVCAR-4 ovarian = tested on: OVCAR-4 ovarian
COLO 205 colon = tested on: COLO 205 colon

For COc1ccc2nc(-c3cc4c([nH]c5ccccc54)c(-c4ccc(F)c(F)c4)n3)[nH]c2c1, the GI50 (MDA-MB-468 breast) was 1.7 µM and the TGI (MDA-MB-468 breast) was 3.92 µM.
With CNC(=O)CN1CCC(Oc2cc3c(Nc4cccc(Cl)c4F)ncnc3cc2OC)CC1 the GI50 (MDA-MB-468 breast) was < 0.01 µM and 0.00403 µM.
Cc1nc2sc(C(=O)Nc3cccc(Br)c3)c(N)c2cc1C(O)c1ccccc1 (stereo not drawn) was tested, and the GI50 (MDA-MB-468 breast) was 0.38 µM and the TGI (MDA-MB-468 breast) was 10.2 µM.
CC(CN)[C@@H]1CC[C@]2(CO)CC[C@]3(C)[C@H](CC[C@@H]4[C@@]5(C)CCC(N)C(C)(C)[C@@H]5CC[C@]43C)[C@@H]12 (stereo partly drawn) showed a GI50 (MDA-MB-468 breast) of 1.59 µM and a TGI (MDA-MB-468 breast) of 3.25 µM.
COc1cnc2c(c1)C(=O)c1c-2n(CCCNC(C)C)c(=O)c2cc([N+](=O)[O-])ccc12 showed a GI50 (MDA-MB-468 breast) of 0.0206 µM and a TGI (MDA-MB-468 breast) of 0.0603 µM.
O=C(NCCCCCCNC(=O)OCc1ccc2c(Cl)cc(Cl)c(O)c2n1)OCc1ccc2c(Cl)cc(Cl)c(O)c2n1 gave a GI50 (MDA-MB-468 breast) of 0.59 µM and a TGI (MDA-MB-468 breast) of 2.14 µM.
With COc1ccc(C2CC(=O)c3c(O)c(OC)c(OC)c(OC)c3O2)cc1O (stereo not drawn) the GI50 (MDA-MB-468 breast) was 1.51 µM and the TGI (MDA-MB-468 breast) was over 100 µM.
Work on Cc1ccc(C2=NN(c3ccc(S(N)(=O)=O)cc3)C(c3cn(-c4ccccc4)nc3-c3ccccc3)C2)cc1 (stereo not drawn) yielded a GI50 (MDA-MB-468 breast) of 24.3 µM and a TGI (MDA-MB-468 breast) of over 100 µM.
In the case of O=[N+]([O-])c1cc2c(c([N+](=O)[O-])c1)Nc1ccccc1O2, the GI50 (MDA-MB-468 breast) was 2.14 µM and the TGI (MDA-MB-468 breast) was 9.84 µM.
Oc1c(I)cc(I)cc1CN(Cc1ccccn1)Cc1ccccn1 was tested, and the GI50 (MDA-MB-468 breast) was 1.31 µM and the TGI (MDA-MB-468 breast) was 7.28 µM.
For CCN(CC)c1ccnc(CNCCSC(c2ccccc2)(c2ccccc2)c2ccc(OC)cc2)c1, the GI50 (SNB-75 CNS) was 1.65 µM, the TGI (SNB-75 CNS) was 9.09 µM and the GI50 (786-0 renal) was 1.75 µM. It also gave a TGI (786-0 renal) of 4.15 µM, a GI50 (UACC-257 melanoma) of 4.04 µM and a TGI (UACC-257 melanoma) of 15.9 µM. The GI50 (NCI-H23 lung) was 3.04 µM, the TGI (NCI-H23 lung) was 10.2 µM and the GI50 (IGROV1 ovarian) was 3.82 µM. For the same molecule, the TGI (IGROV1 ovarian) was 15.7 µM, the GI50 (NCI-H460 lung) was 3.12 µM and the TGI (NCI-H460 lung) was 10.3 µM. The GI50 (NCI-H226 lung) was 3.1 µM, the TGI (NCI-H226 lung) was 13.6 µM and the GI50 (HOP-62 NSCLC) was 3.09 µM. It also gave a TGI (HOP-62 NSCLC) of 12.3 µM, a GI50 (OVCAR-8 ovarian) of 2.71 µM and a TGI (OVCAR-8 ovarian) of 11.2 µM. It also gave a GI50 (MDA-MB-231 breast) of 2.32 µM, a TGI (MDA-MB-231 breast) of 5.78 µM and a GI50 (SK-MEL-5 melanoma) of 1.68 µM. For the same molecule, the TGI (SK-MEL-5 melanoma) was 3.06 µM, the GI50 (SF-295 CNS) was 2.2 µM and the TGI (SF-295 CNS) was 5.86 µM. For the same molecule, the GI50 (UO-31 renal) was 3.86 µM, the TGI (UO-31 renal) was 17 µM and the GI50 (T-47D breast) was 2.94 µM. The TGI (T-47D breast) was 12 µM, the GI50 (ACHN renal) was 4.52 µM and the TGI (ACHN renal) was 17.2 µM. For the same molecule, the GI50 (HCT-15 colon) was 2.87 µM, the TGI (HCT-15 colon) was 10.8 µM and the GI50 (M14 melanoma) was 1.85 µM. The TGI (M14 melanoma) was 4.86 µM, the GI50 (HL-60(TB) leukemia) was 1.65 µM and the TGI (HL-60(TB) leukemia) was 4.24 µM. The GI50 (SF-539 CNS) was 2.15 µM, the TGI (SF-539 CNS) was 4.27 µM and the GI50 (HCC-2998 colon) was 1.79 µM. For the same molecule, the TGI (HCC-2998 colon) was 3.41 µM, the GI50 (A549 NSCLC) was 3.74 µM and the TGI (A549 NSCLC) was 17.1 µM. It also gave a GI50 (BT-549 breast) of 2.62 µM, a TGI (BT-549 breast) of 6.87 µM and a GI50 (PC-3 prostate) of 3.19 µM. The TGI (PC-3 prostate) was 13.3 µM, the GI50 (HOP-92 NSCLC) was 2.36 µM and the TGI (HOP-92 NSCLC) was 9.84 µM. It also gave a GI50 (MCF7 breast) of 1.3 µM, a TGI (MCF7 breast) of 5.96 µM and a GI50 (DU-145 prostate) of 3.78 µM. The TGI (DU-145 prostate) was 13.6 µM, the GI50 (KM12 colon) was 3.41 µM and the TGI (KM12 colon) was 12.4 µM. The GI50 (OVCAR-5 ovarian) was 2.93 µM, the TGI (OVCAR-5 ovarian) was 10.6 µM and the GI50 (OVCAR-3 ovarian) was 3.18 µM. It also gave a TGI (OVCAR-3 ovarian) of 11 µM, a GI50 (SF-268 CNS) of 4.35 µM and a TGI (SF-268 CNS) of 19 µM. It also gave a GI50 (TK-10 renal) of 5.9 µM, a TGI (TK-10 renal) of 19.2 µM and a GI50 (MDA-MB-435) of 1.44 µM. It also gave a TGI (MDA-MB-435) of 5.12 µM, a GI50 (HT29 colon) of 1.98 µM and a TGI (HT29 colon) of 4.45 µM. The GI50 (U251 CNS) was 2.92 µM, the TGI (U251 CNS) was 10.7 µM and the GI50 (EKVX NSCLC) was 3.61 µM. It also gave a TGI (EKVX NSCLC) of 14.9 µM, a GI50 (RXF 393 renal) of 2.4 µM and a TGI (RXF 393 renal) of 7.2 µM. For the same molecule, the GI50 (SN12C renal) was 3.43 µM, the TGI (SN12C renal) was 13.6 µM and the GI50 (SR leukemia) was 2.11 µM. It also gave a TGI (SR leukemia) of 12.4 µM, a GI50 (MOLT-4 leukemia) of 2.19 µM and a TGI (MOLT-4 leukemia) of 7.13 µM. It also gave a GI50 (CAKI-1 renal) of 3.63 µM, a TGI (CAKI-1 renal) of 16 µM and a GI50 (HS 578T breast) of 2.26 µM. For the same molecule, the TGI (HS 578T breast) was 6.8 µM, the GI50 (A498 renal) was 13.9 µM and the TGI (A498 renal) was 29.7 µM. It also gave a GI50 (SW-620 colon) of 3.14 µM, a TGI (SW-620 colon) of 13.2 µM and a GI50 (UACC-62 melanoma) of 4.43 µM. It also gave a TGI (UACC-62 melanoma) of 17 µM, a GI50 (SK-MEL-28 melanoma) of 4.2 µM and a TGI (SK-MEL-28 melanoma) of 15 µM. For the same molecule, the GI50 (HCT-116 colon) was 2 µM, the TGI (HCT-116 colon) was 8.32 µM and the GI50 (SK-OV-3 ovarian) was 3.22 µM. For the same molecule, the TGI (SK-OV-3 ovarian) was 13.2 µM, the GI50 (K-562 leukemia) was 2.68 µM and the TGI (K-562 leukemia) was 8.97 µM. It also gave a GI50 (SNB-19 CNS) of 4.3 µM, a TGI (SNB-19 CNS) of 15.6 µM and a GI50 (NCI-H522 lung) of 2.44 µM. The TGI (NCI-H522 lung) was 7.29 µM, the GI50 (CCRF-CEM leukemia) was 3.13 µM and the TGI (CCRF-CEM leukemia) was 10.8 µM. It also gave a GI50 (MALME-3M melanoma) of 2.82 µM, a TGI (MALME-3M melanoma) of 9.49 µM and a GI50 (LOX IMVI melanoma) of 1.9 µM. The TGI (LOX IMVI melanoma) was 3.86 µM, the GI50 (RPMI-8226 leukemia) was 2.3 µM and the TGI (RPMI-8226 leukemia) was 6.43 µM. For the same molecule, the GI50 (MDA-MB-468 breast) was 1.66 µM, the TGI (MDA-MB-468 breast) was 4.49 µM and the GI50 (OVCAR-4 ovarian) was 4.32 µM. The TGI (OVCAR-4 ovarian) was 20.6 µM, the GI50 (COLO 205 colon) was 1.72 µM and the TGI (COLO 205 colon) was 3.52 µM.
